{"source": "patent US20240174636A1", "about": "“NOVEL INDOLEAMINE 2,3-DIOXYGENASE INHIBITORS, PROCESSES FOR THE PREPARATION THEREOF AND PHARMACEUTICAL COMPOSITIONS COMPRISING THE SAME” (YUHAN CORPORATION, priority 2021, published 2024)", "key": {"IDO1 [1]": {"biological_target": "T1, IDO1 (Homo sapiens, UniProt P14902)", "T1 sequence (P14902 whole entry)": "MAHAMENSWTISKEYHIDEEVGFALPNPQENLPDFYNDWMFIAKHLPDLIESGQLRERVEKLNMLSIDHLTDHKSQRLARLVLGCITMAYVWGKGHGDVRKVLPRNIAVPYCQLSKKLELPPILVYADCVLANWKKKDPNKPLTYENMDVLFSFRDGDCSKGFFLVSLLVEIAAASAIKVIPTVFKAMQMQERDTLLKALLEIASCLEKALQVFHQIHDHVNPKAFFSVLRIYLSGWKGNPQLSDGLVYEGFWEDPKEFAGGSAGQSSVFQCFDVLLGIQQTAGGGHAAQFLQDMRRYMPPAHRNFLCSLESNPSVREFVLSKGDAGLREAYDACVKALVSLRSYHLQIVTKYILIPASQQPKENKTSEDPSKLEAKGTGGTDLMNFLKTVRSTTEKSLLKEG", "test": "IDO1 cellular activity using Hela cells (IFN-gamma induced IDO expression, kynurenine absorbance at 480 nm)", "type": "cell-based", "conditions": "IDO induced with interferon gamma 50 ng/ml, 24 h compound incubation, read-out: Inhibitory Activity (IC50)", "protocol": "Hela cells were seeded at a density of 20000 cells/well in 100 μl of a culture medium (EMEM supplemented with 10% FBS, penicillin 100 U/ml, and streptomycin 100 μg/ml) in a tissue culture-treated 96 well plate. The cells were cultured in a 5% carbon dioxide incubator for 24 hours, treated with recombinant human interferon gamma at the concentration of 50 ng/ml, and then cultured for 48 hours in a 5% carbon dioxide incubator to induce IDO expression.\nThe activities were measured using IDO1 cellular activity-measuring substrate (IDO1 cellular activity quickDetect supplements catalog: #62000-2, BPS Bioscience). Specifically, an assay medium was prepared by diluting IDO1 assay medium substrate 1 and IDO1 assay medium supplement 2 in a culture medium at a ratio of 1:100, respectively. The test compounds were diluted to the predetermined concentrations in the fresh assay medium. After removing the culture medium using a multi-pipet, 200 μl of each assay medium containing the test material was added into the respective well, followed by incubating in a 5% carbon dioxide incubator for 24 hours. The next day, 140 μl of culture medium from each well was transferred to a new 96-well plate. 10 μl of 6.1N trichloroacetic acid was added into each well, which was then cultured in a 50° C. incubator for 30 minutes. The plate was centrifuged at 2500 rpm for 10 minutes to settle any sediment. A detection reagent solution was prepared by diluting the detection reagent (component D kit, catalog: #62000-2, BPS Bioscience) 50-fold in acetic acid. 100 μl of the supernatant taken from the centrifuged plate was transferred to a new transparent 96-well plate and then 100 μl of the detection reagent solution was added thereto. After reacting at room temperature for 10 minutes, absorbance was measured at 480 nm wavelength. For analysis of the results, the absorbance (At) of the well containing Hela cells in which IDO protein expression was induced without treatment of an inhibitor was 100%; and the absorbance (Ab) of the well containing Hela cells in which IDO protein expression was not induced was 0. The % absorbance was calculated according to the following equation: % Absorbance=(A−Ab)/(At−Ab), A=absorbance of the well treated with the test compound.\nThe results obtained by calculating the 50% inhibitory concentration (C50) of each compound, from the absorbance values obtained as described above, are shown in Table 1 below."}, "[2]": {"test": "Pharmacokinetics through oral administration in normal rats", "type": "in vivo", "conditions": "10 mg/5 mL/kg", "protocol": "The pharmacokinetics of the compounds of Examples 2, 5 and 25 and BMS-986205 (control) were measured in rats, respectively. The compounds of Examples 2, 5 and 25 and BMS-986205 (control) were each suspended in 0.5% methyl cellulose containing 0.2% Tween 80 and then orally administered to rats at a dose of 10 mg/5 mL/kg. Blood samples were collected from the rat in predetermined times. The concentration of the compound in each sample was analyzed to obtain the blood concentration profiles (FIG. 1)."}, "IDO1 [3]": {"biological_target": "T1, IDO1", "test": "IDO1 cellular activity using HEK293 cells transfected with IDO1 expression vector", "type": "cell-based", "design": "host or cells: HEK293 cells, transient transfection with Lipofectamine 2000", "conditions": "24 h compound incubation, read-out: Inhibitory Activity (IC50)", "summary_of_the_method": "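HEK293 cells transiently transfected with IDO1 expression vector, expressed 24 h, then given compound in substrate-containing assay medium for 24 h. Medium TCA-treated 30 min at 50° C; product detected by absorbance at 480 nm, scaled between untreated IDO1-expressing cells (100%) and non-expressing cells (0).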"}}, "data": [{"smiles": "C[C@H](C[C@H]1CC[C@@H](c2ccnc3ccc(F)cc32)CC1)Nc1nc2ccc(Cl)cc2o1", "note": "[Example 25, 6-chloro-N-((R)-1-((cis)-4-(6-fluoroquinolin-4-yl)cyclohexyl)propan-2-yl)benzo[d]oxazol-2-amine]", "values": [{"measurement": "IC50", "setting": "IDO1 [1]", "result": 4.4, "unit": "nM"}, {"measurement": "Area under the curve", "setting": "[2]", "result": 16018, "unit": "ng·h/mL"}, {"measurement": "Time to maximum plasma concentration", "setting": "[2]", "result": 2, "unit": "h"}, {"measurement": "Maximum plasma concentration", "setting": "[2]; suspension in 0.5% methyl cellulose containing 0.2% Tween 80", "result": 2170.3, "unit": "ng/mL"}, {"measurement": "IC50", "setting": "IDO1 [3]", "result": 5.2, "unit": "nM"}]}]}
